Data: US9924714B2, “Impregnatable matrix of plant, animal or synthetic origin or mixtures of same, containing a uniformly distributed antimicrobial compound, method for impregnating said matrix with a compound, and use thereof in the production of antimicrobial elements” (COMPAÑIA MINERA SAN GERONIMO, priority 2013, dated 2018)

Experiments:
Assay in all cases: Disc growth inhibition halo test (Example 2)
Type in all cases: cell-based
[1] = test system: Staphylococcus epidermidis ATCC25923
[2] = test system: Acinetobacter baumanii UDP456
[3] = test system: Klebsiella pneumoniae ATCC4352
[4] = test system: Enterococcus faecalis ATCC29212
[5] = test system: Escherichia coli ATCC25922
[6] = test system: Pseudomonas aeruginosa PAOI
[7] = test system: Staphylococcus aureus ATCC25923
[8] = test system: Streptococcus pneumoniae ATCC14325
[9] = test system: Citrobacter freundii ISP1949/99
[10] = test system: Streptococcus pyogenes ATCC2367
[11] = test system: Enterobacter aerogenes ATCC13048
[12] = test system: Enterococcus faecium ISP133/04

O=P([O-])([O-])[O-].[Cu+2].[Cu+2].[OH-] [Copper hydroxyphosphate compound (II), copper hydroxyphosphate (II)]
Growth inhibition zone ([1]; 200 μg on 5 mm disc): 5.0 mm
Growth inhibition zone ([1]; 400 μg on 5 mm disc): 5.0 mm
Growth inhibition zone ([1]; 600 μg on 5 mm disc): 5.6 ± 0.5 mm
Growth inhibition zone ([1]; 800 μg on 5 mm disc): 6.3 ± 1.1 mm
Growth inhibition zone ([2]; 200 μg on 5 mm disc): 5.0 mm
Growth inhibition zone ([2]; 400 μg on 5 mm disc): 8.6 ± 0.6 mm
Growth inhibition zone ([2]; 600 μg on 5 mm disc): 7.3 ± 2 mm
Growth inhibition zone ([2]; 800 μg on 5 mm disc): 7.6 ± 2.3 mm
Growth inhibition zone ([3]; 200 μg on 5 mm disc): 5.0 mm
Growth inhibition zone ([3]; 400 μg on 5 mm disc): 5.0 mm
Growth inhibition zone ([3]; 600 μg on 5 mm disc): 5.0 mm
Growth inhibition zone ([3]; 800 μg on 5 mm disc): 5.0 mm
Growth inhibition zone ([4]; 200 μg on 5 mm disc): 5.0 mm
Growth inhibition zone ([4]; 400 μg on 5 mm disc): 5.0 mm
Growth inhibition zone ([4]; 600 μg on 5 mm disc): 5.0 mm
Growth inhibition zone ([4]; 800 μg on 5 mm disc): 5.0 mm
Growth inhibition zone ([5]; 200 μg on 5 mm disc): 5.0 mm
Growth inhibition zone ([5]; 400 μg on 5 mm disc): 5.0 mm
Growth inhibition zone ([5]; 600 μg on 5 mm disc): 5.0 mm
Growth inhibition zone ([5]; 800 μg on 5 mm disc): 5.0 mm
Growth inhibition zone ([6]; 200 μg on 5 mm disc): 5.0 mm
Growth inhibition zone ([6]; 400 μg on 5 mm disc): 5.0 mm
Growth inhibition zone ([6]; 600 μg on 5 mm disc): 5.0 mm
Growth inhibition zone ([6]; 800 μg on 5 mm disc): 5.0 mm
Growth inhibition zone ([7]; 200 μg on 5 mm disc): 5.0 mm
Growth inhibition zone ([7]; 400 μg on 5 mm disc): 5.0 mm
Growth inhibition zone ([7]; 600 μg on 5 mm disc): 5.0 mm
Growth inhibition zone ([7]; 800 μg on 5 mm disc): 5.0 mm
Growth inhibition zone ([8]; 200 μg on 5 mm disc): 5.0 mm
Growth inhibition zone ([8]; 400 μg on 5 mm disc): 5.0 mm
Growth inhibition zone ([8]; 600 μg on 5 mm disc): 5.0 mm
Growth inhibition zone ([8]; 800 μg on 5 mm disc): 5.0 mm
Growth inhibition zone ([9]; 200 μg on 5 mm disc): 5.0 mm
Growth inhibition zone ([9]; 400 μg on 5 mm disc): 5.0 mm
Growth inhibition zone ([9]; 600 μg on 5 mm disc): 5.0 mm
Growth inhibition zone ([9]; 800 μg on 5 mm disc): 5.0 mm
Growth inhibition zone ([10]; 200 μg on 5 mm disc): 5.0 mm
Growth inhibition zone ([10]; 400 μg on 5 mm disc): 5.0 mm
Growth inhibition zone ([10]; 600 μg on 5 mm disc): 5.0 mm
Growth inhibition zone ([10]; 800 μg on 5 mm disc): 8.6 ± 0.6 mm
Growth inhibition zone ([11]; 200 μg on 5 mm disc): 5.0 mm
Growth inhibition zone ([11]; 400 μg on 5 mm disc): 5.0 mm
Growth inhibition zone ([11]; 600 μg on 5 mm disc): 5.0 mm
Growth inhibition zone ([11]; 800 μg on 5 mm disc): 5.0 mm
Growth inhibition zone ([12]; 200 μg on 5 mm disc): 5.0 mm
Growth inhibition zone ([12]; 400 μg on 5 mm disc): 5.0 mm
Growth inhibition zone ([12]; 600 μg on 5 mm disc): 5.0 mm
Growth inhibition zone ([12]; 800 μg on 5 mm disc): 5.0 mm
